Assay results published in patent publication US9216991B2 (Ares Trading S.A., priority 2012, dated 2015).
pIC50: −log10 of the molar value.

Target: T1, IRAK4 (Homo sapiens, UniProt Q9NWZ3)
T1 construct: His (N); TEV cleavage site (N)
T1 sequence (Q9NWZ3 1-460): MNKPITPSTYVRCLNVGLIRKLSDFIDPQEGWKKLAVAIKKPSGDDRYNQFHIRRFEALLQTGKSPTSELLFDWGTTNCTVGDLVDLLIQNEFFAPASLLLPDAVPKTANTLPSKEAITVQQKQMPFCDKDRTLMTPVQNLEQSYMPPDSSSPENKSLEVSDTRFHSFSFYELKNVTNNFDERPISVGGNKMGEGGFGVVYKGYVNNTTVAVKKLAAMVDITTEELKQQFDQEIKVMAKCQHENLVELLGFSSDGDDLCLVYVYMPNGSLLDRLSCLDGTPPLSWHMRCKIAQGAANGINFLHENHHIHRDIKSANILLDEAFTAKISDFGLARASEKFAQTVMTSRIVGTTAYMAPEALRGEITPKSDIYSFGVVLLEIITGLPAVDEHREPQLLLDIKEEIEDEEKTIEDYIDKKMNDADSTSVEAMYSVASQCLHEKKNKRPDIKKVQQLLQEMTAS
Assay: IRAK4 Enzymatic Assay
Format: biochemical
Conditions: His-TEV-IRAK4 20 ng/well, ATP 2 μM, STK1-biotin peptide 300 nM, 3 hours at 30° C., FlashPlate radioactivity
Protocol: IRAK4 is a human purified recombinant enzyme (His-TEV-IRAK1 (194-712)
IRAK4 hydrolyses ATP, autophosphorylates and phosphorylates a Serine/Threonine generic peptidic substrate (STK: 61ST1BLC from CisBio International based in Bagnols/Cèze FR).
Measurement of IRAK-4 inhibition is performed in streptavidin coated 384 well FlashPlate (PerkinElmer #SMP410A). His-TEV-IRAK4 (20 ng/well), ATP (2 μM, [^33P]ATP 0.25 μCi/well), STK1-biotin peptide (300 nM) and compounds in DMSO (range of concentrations from 20 μM to 1nM) or controls (2% DMSO) are incubated for 3 hours at 30° C. in assay buffer: Hepes pH7.0 50 mM, Fatty acid-free BSA 0.1%, Dithiothreitol DTT 2 mM, MgCl2 10 mM, EGTA 0.5 mM, Tween-20 0.01%, MnCl2 5 mM.
Kinase reaction is stopped by addition of EDTA. Supernatant is discarded, plates are washed three times with 150 mM NaCl and radioactivity is then measured in a Microbeta Trilux reader.

Row | Compound | pIC50
1 | Cn1cc(-c2cccc(-c3ncc(-c4cnn(C5CCCOC5)c4)cn3)c2)cn1 (stereo not shown) [Example 221, 2-[3-(1-Methyl-1H-pyrazol-4-yl)-phenyl]-5-[1-(tetrahydro-pyran-3-yl)-1H-pyrazol-4-yl]-pyrimidine] | 6.00 to 7.00
2 | CC(C)[C@H](CO)NC(=O)[C@H]1CC[C@H](n2cc(-c3cnc(-c4cccc(-c5cnn(C)c5)c4)nc3)cn2)CC1 [Example 163, Trans-4-(4-{2-[3-(1-Methyl-1H-pyrazol-4-yl)-phenyl]-pyrimidin-5-yl}-pyrazol-1-yl)-cyclohexanecarboxylic acid ((R)-1-hydroxymethyl-2-methyl-propyl)-amide] | 6.00 to 7.00
3 | Cn1cc(-c2cccc(-c3ncc(-c4cnn(C5CCN(CC(O)C(F)(F)F)CC5)c4)cn3)c2)cn1 (stereo not shown) [Example 31, 1,1,1-Trifluoro-3-[4-(4-{2-[3-(1-methyl-1H-pyrazol-4-yl)-phenyl]-pyrimidin-5-yl}-pyrazol-1-yl)-piperidin-1-yl]-propan-2-ol] | 6.00 to 7.00
4 | Cn1cc(-c2cccc(-c3ncc(-c4cnn([C@H]5CC[C@H](O)CC5)c4)cn3)c2)cn1 [Example 182, Trans-4-(4-{2-[3-(1-Methyl-1H-pyrazol-4-yl)-phenyl]-pyrimidin-5-yl}-pyrazol-1-yl)-cyclohexanol] | > 7.00
5 | CN1CC(C(=O)N2CCC(n3cc(-c4cnc(-c5cccc(-c6cnn(C)c6)c5)nc4)cn3)CC2)CC1=O (stereo not shown) [Example 113, 1-Methyl-4-[4-(4-{2-[3-(1-methyl-1H-pyrazol-4-yl)-phenyl]-pyrimidin-5-yl}-pyrazol-1-yl)-piperidine-1-carbonyl]-pyrrolidin-2-one] | 6.00 to 7.00
6 | Cc1cc(-c2cccc(-c3ncc(-c4cnn([C@@H]5CCCS(=O)(=O)C5)c4)cn3)c2)cnn1 (single isomer, unassigned) [Example 241] | 6.00 to 7.00
7 | COCC(O)Cn1cc(-c2cnc(-c3cccc(-c4cnn(C)c4)c3)nc2)cn1 (stereo not shown) [Example 35, 1-Methoxy-3-(4-{2-[3-(1-methyl-1H-pyrazol-4-yl)-phenyl]-pyrimidin-5-yl}-pyrazol-1-yl)-propan-2-ol] | 5.30 to 6.00
8 | CC1COCCN1C(=O)Cn1cc(-c2cnc(-c3cccc(-c4cnn(C)c4)c3)nc2)cn1 (stereo not shown) [Example 147, 1-(3-Methyl-morpholin-4-yl)-2-(4-{2-[3-(1-methyl-1H-pyrazol-4-yl)-phenyl]-pyrimidin-5-yl}-pyrazol-1-yl)-ethanone] | 6.00 to 7.00
9 | CN1C[C@]2(CC[C@H](n3cc(-c4cnc(-c5cccc(-c6cnn(C)c6)c5)nc4)cn3)CC2)CC1=O [Example 260, trans-2-Methyl-8-(4-{2-[3-(1-methyl-1H-pyrazol-4-yl)-phenyl]-pyrimidin-5-yl}-pyrazol-1-yl)-2-aza-spiro[4.5]decan-3-one] | > 7.00
10 | CN(C)C(=O)CCn1cc(-c2cnc(-c3cccc(-c4cnn(C)c4)c3)nc2)cn1 [Example 85, N,N-Dimethyl-3-(4-{2-[3-(1-methyl-1H-pyrazol-4-yl)-phenyl]-pyrimidin-5-yl}-pyrazol-1-yl)-propionamide] | 6.00 to 7.00
11 | Cn1cc(-c2cccc(-c3ncc(-c4cnn([C@H]5CC[C@H](C(=O)NCCO)CC5)c4)cn3)c2)cn1 [Example 184, trans-4-(4-{2-[3-(1-Methyl-1H-pyrazol-4-yl)-phenyl]-pyrimidin-5-yl}-pyrazol-1-yl)-cyclohexanecarboxylic acid (2-hydroxy-ethyl)-amide] | > 7.00
12 | Cn1cc(-c2cccc(-c3ncc(-c4cnn(C(C)(C)C(=O)N5CCOCC5)c4)cn3)c2)cn1 [Example 150, 2-Methyl-2-(4-{2-[3-(1-methyl-1H-pyrazol-4-yl)-phenyl]-pyrimidin-5-yl}-pyrazol-1-yl)-1-morpholin-4-yl-propan-1-one] | 5.30 to 6.00
13 | C[C@@H]1C[C@H](n2cc(-c3cnc(-c4cccc(-c5cnn(C)c5)c4)nc3)cn2)CCN1 [Example 243, 5-[1-((2R,4R)-2-Methyl-piperidin-4-yl)-1H-pyrazol-4-yl]-2-[3-(1-methyl-1H-pyrazol-4-yl)-phenyl]-pyrimidine formic acid] | 6.00 to 7.00
